Test results as given in PMC6222646, “HIV-1 Integrase-Targeted Short Peptides Derived from a Viral Protein R Sequence” (Molecules : A Journal of Synthetic Chemistry and Natural …, 2018).
Where “and” joins values, the source holds several entries; their conditions need not be identical. Equal entries are not always repeated. Where a SMILES comes first, the peptide text is derived from it. [ ]: non-standard residue; d: D form. Bpa = N[C@@H](Cc1ccc(C(=O)c2ccccc2)cc1)C(=O)O

Columns and labels:
[1] = molecular target: T1, HIV-1 integrase (IN) (Human immunodeficiency virus type 1 group M subtype B, UniProt P12497); assay: In vitro integrase catalytic assay, 3'-processing (3'-P); format: biochemical; details: 400 nM IN, 20 nM 32P-labeled 21T/21B DNA, 37 °C, 2 h
Procedure: (§1) IN reactions were performed as previously described. […] Reactions were performed at 37 °C (2 h) and quenched by the addition of an equal volume of loading buffer (formamide containing 1% sodium dodecyl sulfate, 0.25% bromophenol blue, and xylene cyanol). Reaction products were separated in 16% polyacrylamide denaturing sequencing gels. Dried gels were visualized using a Typhoon 8600 instrument (GE Healthcare, Chicago, IL, USA). Densitometric analyses were performed using ImageQuant 5.1 software (GE Healthcare, Chicago, IL, USA). Data analyses (linear regression, 50% inhibitory concentration [IC50] determination, standard deviation [SD]) were performed from at least 3 independent determinations using Prism 5.0c software from GraphPad (La Jolla, CA, USA). To assay 3′-P inhibitory potency, reactions were carried out with [γ-^32P]-labeled full-length oligonucleotide 21T ([…]) annealed to the complementary oligonucleotide 21B ([…]). Formation of the shorter processed 19T products was monitored and quantified to assess enzyme performance and inhibitor potency. The ST reactions were carried out with the [γ-^32P]-labeled pre-cleaved oligonucleotide 19T ([…]) annealed to the complementary oligonucleotide 21B ([…]) and formation of integration products (longer and slower migrating than the starting 19T substrate) was monitored to assess enzyme performance and inhibitor potency.

[2] = molecular target: T1, HIV-1 integrase (IN); assay: In vitro integrase catalytic assay, strand transfer (ST); format: biochemical; details: 400 nM IN, 20 nM 32P-labeled pre-cleaved 19T/21B DNA, 37 °C, 2 h
Procedure: as §1

CC[C@H](C)[C@H](NC(=O)[C@H](CCCNC(=N)N)NC(=O)[C@H](Cc1ccccc1)NC(=O)[C@H](Cc1c[nH]cn1)NC(=O)[C@@H](NC(=O)[C@@H](N)Cc1ccccc1)[C@@H](C)CC)C(=O)NCC(N)=O [Peptide 1b, FIHFRIG-amide] (H-FIHFRIG-NH2)
IC50 [1]: 31.5 ± 6 µM
IC50 [2]: 7.3 ± 0.8 µM

CC[C@H](C)[C@H](NC(=O)[C@H](CCCNC(=N)N)NC(=O)[C@H](Cc1ccccc1)NC(=O)[C@H](Cc1c[nH]cn1)NC(=O)[C@@H](NC(=O)[C@H](Cc1ccccc1)NC(C)=O)[C@@H](C)CC)C(=O)NCC(N)=O [Peptide 1c, Ac-FIHFRIG-amide] (Ac-FIHFRIG-NH2)
IC50 [1]: 23.5 ± 3 µM
IC50 [2]: 4.7 ± 0.3 µM

CC[C@H](C)[C@H](NC(=O)[C@H](CCCNC(=N)N)NC(=O)[C@H](Cc1ccccc1)NC(=O)[C@H](Cc1c[nH]cn1)NC(=O)[C@@H](NC(=O)[C@@H](N)Cc1ccccc1)[C@@H](C)CC)C(=O)N[C@@H](C)C(=O)O [Peptide 2a, FIHFRIA] (H-FIHFRIA-OH)
IC50 [1]: > 111 µM
IC50 [2]: 34.7 ± 2.3 µM

CC[C@H](C)[C@H](NC(=O)[C@H](CCCNC(=N)N)NC(=O)[C@H](Cc1ccccc1)NC(=O)[C@H](Cc1c[nH]cn1)NC(=O)[C@@H](NC(=O)[C@@H](N)Cc1ccccc1)[C@@H](C)CC)C(=O)N[C@@H](C)C(N)=O [Peptide 2b, FIHFRIA-amide] (H-FIHFRIA-NH2)
IC50 [1]: > 111 µM
IC50 [2]: 60.6 ± 8 µM

CC[C@H](C)[C@H](NC(=O)[C@H](CCCNC(=N)N)NC(=O)[C@H](Cc1ccccc1)NC(=O)[C@H](Cc1c[nH]cn1)NC(=O)[C@@H](NC(=O)[C@H](Cc1ccccc1)NC(C)=O)[C@@H](C)CC)C(=O)N[C@@H](C)C(N)=O [Peptide 2c, Ac-FIHFRIA-amide] (Ac-FIHFRIA-NH2)
IC50 [1]: 74.5 ± 7 µM
IC50 [2]: 30.4 ± 0.7 µM

CC[C@H](C)[C@H](NC(=O)[C@@H](N)Cc1ccccc1)C(=O)N[C@@H](Cc1c[nH]cn1)C(=O)N[C@@H](Cc1ccccc1)C(=O)N[C@@H](CCCNC(=N)N)C(=O)N[C@@H](C)C(=O)NCC(=O)O [Peptide 3a, FIHFRAG] (H-FIHFRAG-OH)
IC50 [1]: 66.5 ± 7 µM
IC50 [2]: 22.4 ± 1.7 µM

CC[C@H](C)[C@H](NC(=O)[C@@H](N)Cc1ccccc1)C(=O)N[C@@H](Cc1c[nH]cn1)C(=O)N[C@@H](Cc1ccccc1)C(=O)N[C@@H](CCCNC(=N)N)C(=O)N[C@@H](C)C(=O)NCC(N)=O [Peptide 3b, FIHFRAG-amide] (H-FIHFRAG-NH2)
IC50 [1]: > 111 µM
IC50 [2]: > 111 µM

CC[C@H](C)[C@H](NC(=O)[C@H](Cc1ccccc1)NC(C)=O)C(=O)N[C@@H](Cc1c[nH]cn1)C(=O)N[C@@H](Cc1ccccc1)C(=O)N[C@@H](CCCNC(=N)N)C(=O)N[C@@H](C)C(=O)NCC(N)=O [Peptide 3c, Ac-FIHFRAG-amide] (Ac-FIHFRAG-NH2)
IC50 [1]: 208 ± 12 µM
IC50 [2]: 28 ± 4 µM

CC[C@H](C)[C@H](NC(=O)[C@H](C)NC(=O)[C@H](Cc1ccccc1)NC(=O)[C@H](Cc1c[nH]cn1)NC(=O)[C@@H](NC(=O)[C@@H](N)Cc1ccccc1)[C@@H](C)CC)C(=O)NCC(=O)O [Peptide 4a, FIHFAIG] (H-FIHFAIG-OH)
IC50 [1]: > 111 µM
IC50 [2]: > 111 µM

CC[C@H](C)[C@H](NC(=O)[C@H](C)NC(=O)[C@H](Cc1ccccc1)NC(=O)[C@H](Cc1c[nH]cn1)NC(=O)[C@@H](NC(=O)[C@@H](N)Cc1ccccc1)[C@@H](C)CC)C(=O)NCC(N)=O [Peptide 4b, FIHFAIG-amide] (H-FIHFAIG-NH2)
IC50 [1]: > 111 µM
IC50 [2]: > 111 µM

CC[C@H](C)[C@H](NC(=O)[C@H](C)NC(=O)[C@H](Cc1ccccc1)NC(=O)[C@H](Cc1c[nH]cn1)NC(=O)[C@@H](NC(=O)[C@H](Cc1ccccc1)NC(C)=O)[C@@H](C)CC)C(=O)NCC(N)=O [Peptide 4c, Ac-FIHFAIG-amide] (Ac-FIHFAIG-NH2)
IC50 [1]: > 333 µM
IC50 [2]: 81 ± 9 µM

CC[C@H](C)[C@H](NC(=O)[C@H](CCCNC(=N)N)NC(=O)[C@H](C)NC(=O)[C@H](Cc1c[nH]cn1)NC(=O)[C@@H](NC(=O)[C@@H](N)Cc1ccccc1)[C@@H](C)CC)C(=O)NCC(=O)O [Peptide 5a, FIHARIG] (H-FIHARIG-OH)
IC50 [1]: > 111 µM
IC50 [2]: 46.6 ± 6.5 µM

CC[C@H](C)[C@H](NC(=O)[C@H](CCCNC(=N)N)NC(=O)[C@H](C)NC(=O)[C@H](Cc1c[nH]cn1)NC(=O)[C@@H](NC(=O)[C@@H](N)Cc1ccccc1)[C@@H](C)CC)C(=O)NCC(N)=O [Peptide 5b, FIHARIG-amide] (H-FIHARIG-NH2)
IC50 [1]: > 111 µM
IC50 [2]: > 111 µM

CC[C@H](C)[C@H](NC(=O)[C@H](CCCNC(=N)N)NC(=O)[C@H](C)NC(=O)[C@H](Cc1c[nH]cn1)NC(=O)[C@@H](NC(=O)[C@H](Cc1ccccc1)NC(C)=O)[C@@H](C)CC)C(=O)NCC(N)=O [Peptide 5c, Ac-FIHARIG-amide] (Ac-FIHARIG-NH2)
IC50 [1]: > 333 µM
IC50 [2]: 117 ± 10 µM

CC[C@H](C)[C@H](NC(=O)[C@H](CCCNC(=N)N)NC(=O)[C@H](Cc1ccccc1)NC(=O)[C@H](C)NC(=O)[C@@H](NC(=O)[C@@H](N)Cc1ccccc1)[C@@H](C)CC)C(=O)NCC(=O)O [Peptide 6a, FIAFRIG] (H-FIAFRIG-OH)
IC50 [1]: 17.4 ± 2 µM
IC50 [2]: 6.7 ± 1 µM

CC[C@H](C)[C@H](NC(=O)[C@H](CCCNC(=N)N)NC(=O)[C@H](Cc1ccccc1)NC(=O)[C@H](C)NC(=O)[C@@H](NC(=O)[C@@H](N)Cc1ccccc1)[C@@H](C)CC)C(=O)NCC(N)=O [Peptide 6b, FIAFRIG-amide] (H-FIAFRIG-NH2)
IC50 [1]: 95.4 ± 5 µM
IC50 [2]: 35 ± 3.2 µM

CC[C@H](C)[C@H](NC(=O)[C@H](CCCNC(=N)N)NC(=O)[C@H](Cc1ccccc1)NC(=O)[C@H](C)NC(=O)[C@@H](NC(=O)[C@H](Cc1ccccc1)NC(C)=O)[C@@H](C)CC)C(=O)NCC(N)=O [Peptide 6c, Ac-FIAFRIG-amide] (Ac-FIAFRIG-NH2)
IC50 [1]: 94 ± 13 µM
IC50 [2]: 3.5 ± 0.3 µM

CC[C@H](C)[C@H](NC(=O)[C@H](CCCNC(=N)N)NC(=O)[C@H](Cc1ccccc1)NC(=O)[C@H](Cc1c[nH]cn1)NC(=O)[C@H](C)NC(=O)[C@@H](N)Cc1ccccc1)C(=O)NCC(=O)O [Peptide 7a, FAHFRIG] (H-FAHFRIG-OH)
IC50 [1]: > 111 µM
IC50 [2]: 73.5 ± 6 µM

CC[C@H](C)[C@H](NC(=O)[C@H](CCCNC(=N)N)NC(=O)[C@H](Cc1ccccc1)NC(=O)[C@H](Cc1c[nH]cn1)NC(=O)[C@H](C)NC(=O)[C@@H](N)Cc1ccccc1)C(=O)NCC(N)=O [Peptide 7b, FAHFRIG-amide] (H-FAHFRIG-NH2)
IC50 [1]: > 111 µM
IC50 [2]: > 111 µM

CC[C@H](C)[C@H](NC(=O)[C@H](CCCNC(=N)N)NC(=O)[C@H](Cc1ccccc1)NC(=O)[C@H](Cc1c[nH]cn1)NC(=O)[C@H](C)NC(=O)[C@H](Cc1ccccc1)NC(C)=O)C(=O)NCC(N)=O [Peptide 7c, Ac-FAHFRIG-amide] (Ac-FAHFRIG-NH2)
IC50 [1]: > 333 µM
IC50 [2]: 127 ± 14 µM

CC[C@H](C)[C@H](NC(=O)[C@H](C)N)C(=O)N[C@@H](Cc1c[nH]cn1)C(=O)N[C@@H](Cc1ccccc1)C(=O)N[C@@H](CCCNC(=N)N)C(=O)N[C@H](C(=O)NCC(=O)O)[C@@H](C)CC [Peptide 8a, AIHFRIG] (H-AIHFRIG-OH)
IC50 [1]: 86.3 ± 5 µM
IC50 [2]: 22.7 ± 1.4 µM

CC[C@H](C)[C@H](NC(=O)[C@H](C)N)C(=O)N[C@@H](Cc1c[nH]cn1)C(=O)N[C@@H](Cc1ccccc1)C(=O)N[C@@H](CCCNC(=N)N)C(=O)N[C@H](C(=O)NCC(N)=O)[C@@H](C)CC [Peptide 8b, AIHFRIG-amide] (H-AIHFRIG-NH2)
IC50 [1]: > 111 µM
IC50 [2]: > 111 µM

CC[C@H](C)[C@H](NC(=O)[C@H](C)NC(C)=O)C(=O)N[C@@H](Cc1c[nH]cn1)C(=O)N[C@@H](Cc1ccccc1)C(=O)N[C@@H](CCCNC(=N)N)C(=O)N[C@H](C(=O)NCC(N)=O)[C@@H](C)CC [Peptide 8c, Ac-AIHFRIG-amide] (Ac-AIHFRIG-NH2)
IC50 [1]: > 333 µM
IC50 [2]: 46 ± 8 µM

CC[C@H](C)[C@H](NC(=O)[C@@H](N)Cc1ccccc1)C(=O)N[C@@H](Cc1c[nH]cn1)C(=O)N[C@@H](Cc1ccccc1)C(=O)N[C@@H](CCCNC(=N)N)C(=O)N[C@@H](Cc1ccc(C(=O)c2ccccc2)cc1)C(=O)NCC(=O)O [Peptide 9a, FIHFRBG] (H-FIHFR[Bpa]G-OH)
IC50 [1]: 20 ± 3 µM
IC50 [2]: 4 µM and 4.3 µM

CC[C@H](C)[C@H](NC(=O)[C@H](Cc1ccc(C(=O)c2ccccc2)cc1)NC(=O)[C@H](Cc1ccccc1)NC(=O)[C@H](Cc1c[nH]cn1)NC(=O)[C@@H](NC(=O)[C@@H](N)Cc1ccccc1)[C@@H](C)CC)C(=O)NCC(=O)O [Peptide 10a, FIHFBIG] (H-FIHF[Bpa]IG-OH)
IC50 [1]: > 333 µM
IC50 [2]: ~50 µM and 48 µM

CC[C@H](C)[C@H](NC(=O)[C@H](CCCNC(=N)N)NC(=O)[C@H](Cc1ccc(C(=O)c2ccccc2)cc1)NC(=O)[C@H](Cc1c[nH]cn1)NC(=O)[C@@H](NC(=O)[C@@H](N)Cc1ccccc1)[C@@H](C)CC)C(=O)NCC(=O)O [Peptide 11a, FIHBRIG] (H-FIH[Bpa]RIG-OH)
IC50 [1]: 34 ± 6 µM
IC50 [2]: 4.2 ± 0.7 µM

CC[C@H](C)[C@H](NC(=O)[C@H](CCCNC(=N)N)NC(=O)[C@H](Cc1ccccc1)NC(=O)[C@H](Cc1ccc(C(=O)c2ccccc2)cc1)NC(=O)[C@@H](NC(=O)[C@@H](N)Cc1ccccc1)[C@@H](C)CC)C(=O)NCC(=O)O [Peptide 12a, FIBFRIG] (H-FI[Bpa]FRIG-OH)
IC50 [1]: 6.5 ± 0.9 µM
IC50 [2]: 2.2 ± 0.6 µM
